Measured values from patent publication US20140357512A1, “HISTONE DEACETYLASE (HDAC) BIOMARKERS IN MULTIPLE MYELOMA” (priority 2013, published 2014).

Tested on: human myeloma cell line MM.1S
Assay: SILAC acetylated-lysine peptide profiling, HDAC inhibitor vs DMSO (light/heavy ratio)
Format: cell-based
Source text: An embodiment of the invention comprises utilizing the SILAC method in order to quantitate changes in protein expression between two or more populations of cells. The SILAC method is a technique based on mass spectrometry that detects differences in protein abundance among samples using non-radioactive isotopic labeling. The SILAC method is known in the art, and described in detail in Ong et al., “Stable Isotope Labeling by Amino Acids in Cell Culture, SILAC, as a Simple and Accurate Approach to Expression Proteomics”, Molecular & Cellular Proteomics, vol. 1, pp. 376-386 (2002), which is incorporated herein by reference in its entirety.
Briefly, the SILAC method involves growing two populations of cells in cell culture. The first population of cells is grown in growth media containing normal amino acids (“normal media”). The second population of cells is grown in media lacking a standard essential amino acid (such as lysine), but is then supplemented with a non-radioactive, isotopically labeled form of that essential amino acid (such as lysine labeled with ^13C atoms, rather than normal ^12C atoms), which is called “heavy media”. When the two populations of cells are each growing in the medium, they incorporate the amino acids into all of their proteins. The growth of cells maintained in the heavy media is no different from that in normal media. All peptides containing the heavy amino acids are heavier than their normal counterparts. The cells from each of the two populations of cells are lysed. The lysates from each of the two cell populations are then combined. The combined cell lysates are then analyzed by mass spectrometry. Pairs of chemically identical peptides of different stable isotope composition can be differentiated in a mass spectrometer due to their difference in mass. The ratio of peak intensities in the mass spectrum for such peptide pairs reflects the abundance ratio for the two proteins.
This example describes SILAC studies that were performed to compare the effects of three different HDAC inhibitors (Compound A, Compound B, and tubastatin A) to a control on a human multiple myeloma cell line. The HDAC inhibitors were also compared amongst themselves to determine differences in their effects.
A human myeloma cell line MM.1S was grown using either ^12C (light) or ^13C (heavy) lysine containing culture medium. The “heavy” cells were treated with DMSO as the control, and the “light” cells were treated with a single HDAC inhibitor at 37° C. for 6 hours. The heavy and light cells were lysed, and the lysates were mixed in 1:1 ratio and digested with the protease trypsin. The acetylated lysine containing peptides (due to the action of the HDAC inhibitor) in the digested peptide pool were captured by a non-specific anti-acetylated lysine antibody cocktail (the antibodies identify both light and heavy acetylated peptides), and subjected to mass spectrometry analysis in order to identify thousands of individual peptides.
Thousands of peptides were identified in pairs (^12C and ^13C) due to their known mass differences. The amino acid sequence and quantitative ratio (Light/Heavy) of a given peptide in two differentially treated cell lysates were then determined and annotated with their possible protein (gene) sources.
As stated above, three HDAC inhibitors (Compound A, Compound B, and Tubastatin A) were used. Thus, the SILAC method was performed three times, with a different HDAC inhibitor compared to a control each time. Accordingly, there are three pairs of quantitative data in the table below, i.e., Compound A:DMSO, Compound B:DMSO, and Tubastatin A:DMSO. A cut-off of 1.30 fold of change (increase or decrease) was then used to determine “changed” or “+” in the table, and any peptides with a fold of change less than 1.3 fold were determined to be “unchanged” or “0” in the table. Those peptides that were not identified were marked as “NA” in the table. […]

## O=C(NO)c1cnc(NC2(c3cccc(F)c3)CCCCC2)nc1 [Compound B, 2-((1-(3-fluorophenyl)cyclohexyl)amino)-N-hydroxypyrimidine-5-carboxamide]
IGLV2-14, IGLC2 [208], log 2 scale, drug vs DMSO
  L/H ratio of acetylated peptide […](ac)SHR (SEQ ID NO: 56): 0.00
IGQGYLIK(ac)DGK (SEQ ID NO: 249), 60S ribosomal protein L3 [294], SNORD43, RPL3
  light to heavy ratio (L/H ratio) of acetylated peptide, log 2 scale: 0.00
IIWHK(ac)FK (SEQ ID NO: 419), Isoform 1 of 39S ribosomal protein L47 mitochondrial [180], MRPL47
  L/H ratio of acetylated peptide: −0.73 log 2
IMK(ac)DLDQCR (SEQ ID NO: 217), Protein S100-A10 [57], S100A10
  light to heavy ratio (L/H ratio) of acetylated peptide, log 2 scale: 0.00
IMK(ac)SEVLR (SEQ ID NO: 434), 26S protease regulatory subunit 6A [56], PSMC3
  L/H ratio of acetylated peptide: 0.41 log 2
IMQK(ac)YGFR (SEQ ID NO: 440), Splicing factor 45 [245], RBM17
  L/H ratio of acetylated peptide: −0.50 log 2
IQDK(ac)EGIPPDQQR (SEQ ID NO: 212), Ubiquitin-40S ribosomal protein S27a [33], RPS27A
  light to heavy ratio (L/H ratio) of acetylated peptide, log 2 scale: 0.00
IQFK(ac)QDDGTGPEK (SEQ ID NO: 412), Isoform 1 of Far upstream element-binding protein 2 [359], KHSRP
  L/H ratio of acetylated peptide: 0.61 log 2
ISK(ac)EVLAGR (SEQ ID NO: 167), Isoform Short of Heterogeneous nuclear ribonucleoprotein U [417], HNRNPU
  light to heavy ratio (L/H ratio) of acetylated peptide, log 2 scale: 0.00
IYHPNVDK(ac)LGR (SEQ ID NO: 462), Ubiquitin-conjugating enzyme E2 N [82], UBE2N
  L/H ratio of acetylated peptide: −0.70 log 2
Integrin-linked protein kinase [426], gene ILK, drug:DMSO
  light to heavy ratio (L/H ratio), log 2 scale, acetylated peptide LMK(ac)ICMNEDPAK (SEQ ID NO: 800): 0.00
Isocitrate dehydrogenase [NADP] mitochondrial [180], gene IDH2, inhibitor:DMSO
  light to heavy ratio (L/H ratio) of acetylated peptide HAHGDQYK(ac)ATDFVADR (SEQ ID NO: 574): 0.00 log 2
Isocitrate dehydrogenase [NADP] mitochondrial [193], gene IDH2, inhibitor:DMSO
  light to heavy ratio (L/H ratio) of acetylated peptide AGTFK(ac)MVFTPK (SEQ ID NO: 606): 0.00 log 2
Isocitrate dehydrogenase [NADP] mitochondrial [282], gene IDH2, inhibitor:DMSO
  light to heavy ratio (L/H ratio) of acetylated peptide TDFDKNK(ac)IWYEHR (SEQ ID NO: 555): 0.00 log 2
Isoform 1 of 3-hydroxyisobutyryl-CoA hydrolase mitochondrial [353], gene HIBCH, inhibitor:DMSO
  light to heavy ratio (L/H ratio) of acetylated peptide AVLIDK(ac)DQSPK (SEQ ID NO: 577): 0.00 log 2
Isoform 1 of 39S ribosomal protein L47 mitochondrial [144], MRPL47, drug:DMSO
  light to heavy ratio (L/H ratio) of acetylated peptide […](ac)VVQER (SEQ ID NO: 318): 0.00 log 2
Isoform 1 of 40S ribosomal protein S24 [37], RPS24, drug:DMSO
  light to heavy ratio (L/H ratio) of acetylated peptide ATVPK(ac)TEIR (SEQ ID NO: 272): 0.00 log 2
Isoform 1 of 60S ribosomal protein L11 [159], RPL11, drug:DMSO
  light to heavy ratio (L/H ratio) of acetylated peptide ISK(ac)EEAMR (SEQ ID NO: 299): 0.00 log 2
Isoform 1 of AP-2 complex subunit beta [318], AP2B1, drug:DMSO
  light to heavy ratio (L/H ratio) of acetylated peptide RPEILK(ac)QEIK (SEQ ID NO: 359): 0.57 log 2
Isoform 1 of ATP synthase subunit d mitochondrial [58], ATP5H, drug:DMSO
  light to heavy ratio (L/H ratio) of acetylated peptide […](ac)ANVAK (SEQ ID NO: 364): 0.48 log 2
Isoform 1 of ATP synthase subunit d mitochondrial [85], ATP5H, drug:DMSO
  light to heavy ratio (L/H ratio) of acetylated peptide VPVPEDK(ac)[…] (SEQ ID NO: 290): 0.00 log 2
Isoform 1 of B-cell CLL/lymphoma 9-like protein [36:43], BCL9L, drug:DMSO
  light to heavy ratio (L/H ratio) of acetylated peptide GHCPPAPAK(ac)PMHPENK(ac)LTNHGK (SEQ ID NO: 366): 0.63 log 2
Isoform 1 of Coatomer subunit alpha [81], gene COPA, inhibitor:DMSO
  light to heavy ratio (L/H ratio) of acetylated peptide VWNYK(ac)LR (SEQ ID NO: 593): 0.00 log 2
Isoform 1 of Cytoskeleton-associated protein 5 [438], CKAP5, drug:DMSO
  light to heavy ratio (L/H ratio) of acetylated peptide SLLK(ac)PFCAALLK (SEQ ID NO: 329): 0.48 log 2
Isoform 1 of Heat shock cognate 71 kDa protein [601], gene HSPA8, inhibitor:DMSO
  light to heavy ratio (L/H ratio) of acetylated peptide ELEK(ac)VCNPIITK (SEQ ID NO: 612): 0.00 log 2
Isoform 1 of Histone-lysine N-methyltransferase MLL3 [758], gene MLL3, inhibitor:DMSO
  light to heavy ratio (L/H ratio) of acetylated peptide DVSYQGGK(ac)SIK (SEQ ID NO: 571): 0.00 log 2
Isoform 1 of Histone-lysine N-methyltransferase MLL3 [2809], gene MLL3, inhibitor:DMSO
  light to heavy ratio (L/H ratio) of acetylated peptide TLVLSDK(ac)HSPQK (SEQ ID NO: 523): 0.00 log 2
Isoform 1 of Hydroxyacyl-coenzyme A dehydrogenase mitochondrial [301], HADH, drug:DMSO
  light to heavy ratio (L/H ratio) of acetylated peptide LVAENK(ac)FGK (SEQ ID NO: 296): 0.00 log 2
Isoform 1 of L-lactate dehydrogenase A chain [318], LDHA, drug:DMSO
  light to heavy ratio (L/H ratio) of acetylated peptide K(ac)[…] (SEQ ID NO: 316): 0.00 log 2
Isoform 1 of Myosin-9 [435], MYH9, drug:DMSO
  light to heavy ratio (L/H ratio) of acetylated peptide INK(ac)ALDK (SEQ ID NO: 344): 0.43 log 2
Isoform 1 of N-alpha-acetyltransferase 50 NatE catalytic subunit [37], gene NAA50, inhibitor:DMSO
  light to heavy ratio (L/H ratio) of acetylated peptide FYK(ac)[…] (SEQ ID NO: 596): 0.00 log 2
Isoform 1 of Peripherin [288], gene PRPH, drug:DMSO
  light to heavy ratio (L/H ratio), log 2 scale, acetylated peptide […](ac)SK (SEQ ID NO: 767): 0.00
